What follows are compounds tested against T1, bovine serum albumin (BSA) (Bos taurus, UniProt P02769) (assay: tryptophan fluorescence quenching, double-log plot). Details: 25 mM Tris-HCl pH 7.4, 298.15 K, BSA 10 μM, surfactant 0-700 μM.
T1 construct: gene ALB; native serum protein, BSA powder dissolved in buffer; mature form expected
Type: binding
From the text: tryptophan fluorescence quenching, double-log plot on bovine serum albumin (BSA)

T1 sequence (P02769 25-607): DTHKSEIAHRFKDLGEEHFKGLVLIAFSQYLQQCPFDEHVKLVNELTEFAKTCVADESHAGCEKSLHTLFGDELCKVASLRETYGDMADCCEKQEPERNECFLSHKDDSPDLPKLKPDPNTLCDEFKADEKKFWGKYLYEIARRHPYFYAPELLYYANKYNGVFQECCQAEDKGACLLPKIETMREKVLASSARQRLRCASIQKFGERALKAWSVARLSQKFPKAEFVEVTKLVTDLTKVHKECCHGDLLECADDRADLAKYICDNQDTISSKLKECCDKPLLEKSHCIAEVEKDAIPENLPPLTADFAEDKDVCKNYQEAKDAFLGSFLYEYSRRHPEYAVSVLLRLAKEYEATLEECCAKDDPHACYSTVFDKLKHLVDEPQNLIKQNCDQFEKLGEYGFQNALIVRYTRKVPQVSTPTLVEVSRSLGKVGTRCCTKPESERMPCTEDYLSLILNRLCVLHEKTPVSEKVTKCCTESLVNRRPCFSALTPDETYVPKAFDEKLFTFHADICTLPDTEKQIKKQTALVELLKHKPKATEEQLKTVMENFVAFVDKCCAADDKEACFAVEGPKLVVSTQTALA

Row | Compound | Kb
1 | CCCCCCCCn1cc[n+](CCC[n+]2ccn(CCOCCn3cc(COCCOCCOCCOC)nn3)c2)c1 [15b, 1-(2-(2-(4-(2,5,8,11-tetraoxadodecyl)-1H-1,2,3-triazol-1-yl)ethoxy)ethyl)-3-(3-(1-octyl-1H-imidazol-3-ium-3-yl)propyl)-1H-imidazol-3-ium dibromide] | 10400 M⁻¹
2 | CCCCn1cc[n+](CCCn2cc[n+](CCCn3cc(COCCOCCOCCOC)nn3)c2)c1 [14a, 1-(3-(4-(2,5,8,11-tetraoxadodecyl)-1H-1,2,3-triazol-1-yl)propyl)-3-(3-(1-butyl-1H-imidazol-3-ium-3-yl)propyl)-1H-imidazol-3-ium dibromide] | 730 M⁻¹
3 | CCCCCCCCCCCCCCn1cc[n+](CCC[n+]2ccn(CCOCCn3cc(COCCOCCOCCOC)nn3)c2)c1 [15c, 1-(2-(2-(4-(2,5,8,11-tetraoxadodecyl)-1H-1,2,3-triazol-1-yl)ethoxy)ethyl)-3-(3-(1-tetradecyl-1H-imidazol-3-ium-3-yl)propyl)-1H-imidazol-3-ium dibromide] | 10900 M⁻¹
4 | COCCOCCOCCOCc1cn(CCCn2cc[n+](CCC[n+]3ccn(CCCn4cc(COCCOCCOCCOC)nn4)c3)c2)nn1 [14d, 3,3′-(propane-1,3-diyl)bis(1-(3-(4-(2,5,8,11-tetraoxadodecyl)-1H-1,2,3-triazol-1-yl)propyl)-1H-imidazol-3-ium) dibromide] | 34800 M⁻¹
5 | COCCOCCOCCOCc1cn(CCOCCn2cc[n+](CCC[n+]3ccn(CCOCCn4cc(COCCOCCOCCOC)nn4)c3)c2)nn1 [15d, 3,3′-(propane-1,3-diyl)bis(1-(2-(2-(4-(2,5,8,11-tetraoxadodecyl)-1H-1,2,3-triazol-1-yl)ethoxy)ethyl)-1H-imidazol-3-ium) dibromide] | 10000 M⁻¹
6 | CCCCCCCCn1cc[n+](CCCn2cc[n+](CCCn3cc(COCCOCCOCCOC)nn3)c2)c1 [14b, 1-(3-(4-(2,5,8,11-tetraoxadodecyl)-1H-1,2,3-triazol-1-yl)propyl)-3-(3-(1-octyl-1H-imidazol-3-ium-3-yl)propyl)-1H-imidazol-3-ium dibromide] | 20700 M⁻¹
7 | CCCCCCCCCCCCCCn1cc[n+](CCC[n+]2ccn(CCCn3cc(COCCOCCOCCOC)nn3)c2)c1 [14c, 1-(3-(4-(2,5,8,11-tetraoxadodecyl)-1H-1,2,3-triazol-1-yl)propyl)-3-(3-(1-tetradecyl-1H-imidazol-3-ium-3-yl)propyl)-1H-imidazol-3-ium dibromide] | 44900 M⁻¹
8 | CCCCn1cc[n+](CCC[n+]2ccn(CCOCCn3cc(COCCOCCOCCOC)nn3)c2)c1 [15a, 1-(2-(2-(4-(2,5,8,11-tetraoxadodecyl)-1H-1,2,3-triazol-1-yl)ethoxy)ethyl)-3-(3-(1-butyl-1H-imidazol-3-ium-3-yl)propyl)-1H-imidazol-3-ium dibromide] | 790 M⁻¹

Reference: article PMC11597725, “New Asymmetric Gemini Triazole Surfactants with a Polar Triethylene Glycol Fragment: Synthesis and Physico-Chemical Properties” (Molecules, 2024)
